# Target: T1, human GPR17 receptor (Homo sapiens, UniProt Q13304)
# T1 construct: host or cells: HEK-293
# Experiment: Calcium mobilization functional assay (Fluo-8, FLIPR TETRA) in HEK-293 hGPR17 (Gα-q assay)
# Assay type: cell-based
# Conditions: antagonism of MDL29,951 (~EC80) induced Ca2+ signal; cell line (HEK-293 hGPR17 or HEK-293 Suchi5 hGPR17) not given
# How it was run: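 Fluo-8-loaded HEK-293 hGPR17 cells (60 min dye loading, room temperature) were preincubated with compound for twenty minutes, then challenged with agonist MDL29,951 at ~EC80, 500 nM. Intracellular calcium release via Gα-q was recorded as FLIPR fluorescence for a further 2 minutes; compounds tested in duplicate.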
# T1 sequence (Q13304 whole entry): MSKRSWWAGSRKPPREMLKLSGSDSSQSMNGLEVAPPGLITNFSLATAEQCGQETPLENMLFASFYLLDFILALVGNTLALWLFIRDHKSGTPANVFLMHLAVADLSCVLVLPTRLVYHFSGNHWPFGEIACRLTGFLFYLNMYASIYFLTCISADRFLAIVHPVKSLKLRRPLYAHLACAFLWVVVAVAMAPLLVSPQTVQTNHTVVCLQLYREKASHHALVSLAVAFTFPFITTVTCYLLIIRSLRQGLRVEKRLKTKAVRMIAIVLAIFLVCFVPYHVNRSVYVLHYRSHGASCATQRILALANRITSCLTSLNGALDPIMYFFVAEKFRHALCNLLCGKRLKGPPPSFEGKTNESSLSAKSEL
row,IC50,SMILES
1,5 to 50 µM,"N#Cc1ccc(NS(=O)(=O)c2c[nH]c(-c3ncccc3C(F)F)c2)c(F)c1 [Cpd 581, N-(4-cyano-2-fluorophenyl)-5-[3-(difluoromethyl)pyridin-2-yl]-1H-pyrrole-3-sulfonamide]"
2,0.5 to 5 µM,"Cc1noc(C)c1-c1cc(S(=O)(=O)Nc2cc(F)c(C(F)(F)F)cc2F)c[nH]1 [Cpd 582, N-[2,5-difluoro-4-(trifluoromethyl)phenyl]-5-(3,5-dimethyl-1,2-oxazol-4-yl)-1H-pyrrole-3-sulfonamide]"
3,< 0.5 µM,"N#Cc1cc(F)c(NS(=O)(=O)c2c[nH]cc2Cc2ccc(F)cc2)cc1F [Cpd 584, N-(4-cyano-2,5-difluorophenyl)-4-[(4-fluorophenyl)methyl]-1H-pyrrole-3-sulfonamide]"
4,< 0.5 µM,"N#Cc1cc(F)c(NS(=O)(=O)c2c[nH]cc2Cc2cccc(F)c2)cc1F [Cpd 585, N-(4-cyano-2,5-difluorophenyl)-4-[(3-fluorophenyl)methyl]-1H-pyrrole-3-sulfonamide]"
5,0.5 to 5 µM,"N#Cc1cc(F)c(NS(=O)(=O)c2c[nH]cc2Cc2cccc(C3CC3)c2)cc1F [Cpd 586, N-(4-cyano-2,5-difluorophenyl)-4-[(3-cyclopropylphenyl)methyl]-1H-pyrrole-3-sulfonamide]"
6,0.5 to 5 µM,"N#Cc1ccc(NS(=O)(=O)c2c[nH]c(-c3ccccc3OC(F)(F)F)c2)c(F)c1 [Cpd 587, N-(4-cyano-2-fluorophenyl)-5-[2-(trifluoromethoxy)phenyl]-1H-pyrrole-3-sulfonamide]"
7,< 0.5 µM,"N#Cc1cc(F)c(NS(=O)(=O)c2c[nH]c(-c3ccccc3OC(F)(F)F)c2)cc1F [Cpd 588, N-(4-cyano-2,5-difluorophenyl)-5-[2-(trifluoromethoxy)phenyl]-1H-pyrrole-3-sulfonamide]"
8,0.5 to 5 µM,"O=S(=O)(Nc1cc(F)c(C(F)(F)F)cc1F)c1c[nH]c(-c2ccccc2OC(F)(F)F)c1 [Cpd 589, N-[2,5-difluoro-4-(trifluoromethyl)phenyl]-5-[2-(trifluoromethoxy)phenyl]-1H-pyrrole-3-sulfonamide]"
9,5 to 50 µM,"O=S(=O)(Nc1cc(F)c(C(F)(F)F)cc1F)c1c[nH]cc1Cc1cccc(C2CC2)c1 [Cpd 590, 4-[(3-cyclopropylphenyl)methyl]-N-[2,5-difluoro-4-(trifluoromethyl)phenyl]-1H-pyrrole-3-sulfonamide]"
10,5 to 50 µM,"O=S(=O)(Nc1cnsc1)c1c[nH]c(-c2ccccc2)c1 [Cpd 591, 5-phenyl-N-(1,2-thiazol-4-yl)-1H-pyrrole-3-sulfonamide]"
11,0.5 to 5 µM,"N#Cc1ccc(NS(=O)(=O)c2c[nH]c(-c3ncccc3CF)c2)c(F)c1 [Cpd 592, N-(4-cyano-2-fluorophenyl)-5-[3-(fluoromethyl)pyridin-2-yl]-1H-pyrrole-3-sulfonamide]"
12,0.5 to 5 µM,"O=S(=O)(Nc1cc(F)cs1)c1c[nH]c(-c2ccccc2)c1 [Cpd 593, N-(4-fluorothiophene-2-yl)-5-phenyl-1H-pyrrole-3-sulfonamide]"
13,< 0.5 µM,"N#Cc1ccc(NS(=O)(=O)c2c[nH]c(-c3cscc3F)c2)c(F)c1 [Cpd 594, N-(4-cyano-2-fluorophenyl)-5-(4-fluorothiophene-3-yl)-1H-pyrrole-3-sulfonamide]"
14,0.5 to 5 µM,"Cc1nc(-c2cc(S(=O)(=O)Nc3cc(F)c(C(F)(F)F)cc3F)c[nH]2)cs1 [Cpd 595, N-[2,5-difluoro-4-(trifluoromethyl)phenyl]-5-(2-methyl-1,3-thiazol-4-yl)-1H-pyrrole-3-sulfonamide]"
15,0.5 to 5 µM,"N#Cc1cc(F)c(NS(=O)(=O)c2c[nH]c(-c3ccc(F)c(Cl)c3)c2)cc1F [Cpd 596, 5-(3-chloro-4-fluorophenyl)-N-(4-cyano-2,5-difluorophenyl)-1H-pyrrole-3-sulfonamide]"
16,< 0.5 µM,"O=S(=O)(Nc1cc(F)c(C(F)(F)F)cc1F)c1c[nH]c(-c2cncs2)c1 [Cpd 597, N-[2,5-difluoro-4-(trifluoromethyl)phenyl]-5-(1,3-thiazol-5-yl)-1H-pyrrole-3-sulfonamide]"
17,< 0.5 µM,"N#Cc1cc(F)c(NS(=O)(=O)c2c[nH]c(-c3nccs3)c2)cc1F [Cpd 598, N-(4-cyano-2,5-difluorophenyl)-5-(1,3-thiazol-2-yl)-1H-pyrrole-3-sulfonamide]"
18,< 0.5 µM,"Cc1csc(-c2cc(S(=O)(=O)Nc3cc(F)c(C(F)(F)F)cc3F)c[nH]2)n1 [Cpd 599, N-[2,5-difluoro-4-(trifluoromethyl)phenyl]-5-(4-methyl-1,3-thiazol-2-yl)-1H-pyrrole-3-sulfonamide]"
19,5 to 50 µM,"Cn1cccc(-c2cc(S(=O)(=O)Nc3ccc(C#N)cc3F)c[nH]2)c1=O [Cpd 600, N-(4-cyano-2-fluorophenyl)-5-(1-methyl-2-oxopyridin-3-yl)-1H-pyrrole-3-sulfonamide]"
20,0.5 to 5 µM,"N#Cc1cc(F)c(NS(=O)(=O)c2c[nH]c(-c3ccccc3)c2)s1 [Cpd 601, N-(5-cyano-3-fluorothiophen-2-yl)-5-phenyl-1H-pyrrole-3-sulfonamide]"

row,IC50,SMILES
1,< 0.5 µM,"N#Cc1ccc(NS(=O)(=O)c2c[nH]c(-c3sccc3F)c2)c(F)c1 [Cpd 602, N-(4-cyano-2-fluorophenyl)-5-(3-fluorothiophen-2-yl)-1H-pyrrole-3-sulfonamide]"
2,5 to 50 µM,"CC(C)n1cccc(-c2cc(S(=O)(=O)Nc3ccc(C#N)cc3F)c[nH]2)c1=O [Cpd 603, N-(4-cyano-2-fluorophenyl)-5-(2-oxo-1-propan-2-ylpyridin-3-yl)-1H-pyrrole-3-sulfonamide]"
3,0.5 to 5 µM,"N#Cc1ccc(NS(=O)(=O)c2c[nH]c(-c3cccn(C(F)F)c3=O)c2)c(F)c1 [Cpd 604, N-(4-cyano-2-fluorophenyl)-5-[1-(difluoromethyl)-2-oxopyridin-3-yl]-1H-pyrrole-3-sulfonamide]"
4,0.5 to 5 µM,"N#Cc1cc(F)c(NS(=O)(=O)c2c[nH]cc2Cc2cc(F)cc(Cl)c2)cc1F [Cpd 605, 4-[(3-chloro-5-fluorophenyl)methyl]-N-(4-cyano-2,5-difluorophenyl)-1H-pyrrole-3-sulfonamide]"
5,0.5 to 5 µM,"Cc1cnc(-c2cc(S(=O)(=O)Nc3cc(F)c(C(F)(F)F)cc3F)c[nH]2)s1 [Cpd 606, N-[2,5-difluoro-4-(trifluoromethyl)phenyl]-5-(5-methyl-1,3-thiazol-2-yl)-1H-pyrrole-3-sulfonamide]"
6,5 to 50 µM,"N#Cc1cnc(-c2cc(S(=O)(=O)Nc3cc(F)c(C(F)(F)F)cc3F)c[nH]2)s1 [Cpd 607, 5-(5-cyano-1,3-thiazol-2-yl)-N-[2,5-difluoro-4-(trifluoromethyl)phenyl]-1H-pyrrole-3-sulfonamide]"
7,5 to 50 µM,"N#Cc1ccc(NS(=O)(=O)c2c[nH]cc2Cc2ccc3c(c2)OCC3)c(F)c1 [Cpd 608, N-(4-cyano-2-fluorophenyl)-4-(2,3-dihydro-1-benzofuran-6-ylmethyl)-1H-pyrrole-3-sulfonamide]"
8,0.5 to 5 µM,"N#Cc1ccc(NS(=O)(=O)c2c[nH]c(F)c2Cc2ccccc2)c(F)c1 [Cpd 609, 4-benzyl-N-(4-cyano-2-fluorophenyl)-5-fluoro-1H-pyrrole-3-sulfonamide]"
9,< 0.5 µM,"N#Cc1ccc(NS(=O)(=O)c2c[nH]c(-c3nccs3)c2)c(F)c1 [Cpd 610, N-(4-cyano-2-fluorophenyl)-5-(1,3-thiazol-2-yl)-1H-pyrrole-3-sulfonamide]"
10,0.5 to 5 µM,"O=S(=O)(Nc1cc(F)c(OC(F)F)cc1F)c1c[nH]c(-c2nnco2)c1 [Cpd 611, N-[4-(difluoromethoxy)-2,5-difluorophenyl]-5-(1,3,4-oxadiazol-2-yl)-1H-pyrrole-3-sulfonamide]"
11,< 0.5 µM,"[2H]c1ccc(-c2cc(S(=O)(=O)Nc3ccc(C#N)cc3F)c[nH]2)cc1 [Cpd 612, N-(4-cyano-2-fluorophenyl)-5-(4-deuteriophenyl)-1H-pyrrole-3-sulfonamide]"
12,0.5 to 5 µM,"O=S(=O)(Nc1cc(F)c(OC(F)F)cc1F)c1c[nH]c(-c2ncns2)c1 [Cpd 613, N-[4-(difluoromethoxy)-2,5-difluorophenyl]-5-(1,2,4-thiadiazol-5-yl)-1H-pyrrole-3-sulfonamide]"
13,5 to 50 µM,"N#Cc1ccc(NS(=O)(=O)c2c[nH]c(-c3cccn(CC(F)(F)F)c3=O)c2)c(F)c1 [Cpd 614, N-(4-cyano-2-fluorophenyl)-5-[2-oxo-1-(2,2,2-trifluoroethyl)pyridin-3-yl]-1H-pyrrole-3-sulfonamide]"
14,< 0.5 µM,"N#Cc1cc(F)c(NS(=O)(=O)c2c[nH]c(-c3cccc4ccoc34)c2)cc1F [Cpd 615, 5-(1-benzofuran-7-yl)-N-(4-cyano-2,5-difluorophenyl)-1H-pyrrole-3-sulfonamide]"
15,0.5 to 5 µM,"N#Cc1ccc(NS(=O)(=O)c2c[nH]cc2CC2CCCCC2)c(F)c1 [Cpd 616, N-(4-cyano-2-fluorophenyl)-4-(cyclohexylmethyl)-1H-pyrrole-3-sulfonamide]"
16,5 to 50 µM,"N#Cc1cnc(-c2cc(S(=O)(=O)Nc3cc(F)c(OC(F)F)cc3F)c[nH]2)s1 [Cpd 617, 5-(5-cyano-1,3-thiazol-2-yl)-N-[4-(difluoromethoxy)-2,5-difluorophenyl]-1H-pyrrole-3-sulfonamide]"
17,0.5 to 5 µM,"O=S(=O)(Nc1cc(F)c(C(F)(F)F)cc1F)c1c[nH]c(-c2cnccn2)c1 [Cpd 618, N-[2,5-difluoro-4-(trifluoromethyl)phenyl]-5-pyrazin-2-yl-1H-pyrrole-3-sulfonamide]"
18,< 0.5 µM,"O=S(=O)(Nc1cc(F)c(C(F)(F)F)cc1F)c1c[nH]c(-c2cccnn2)c1 [Cpd 619, N-[2,5-difluoro-4-(trifluoromethyl)phenyl]-5-pyridazin-3-yl-1H-pyrrole-3-sulfonamide]"
19,0.5 to 5 µM,"Cn1cnc2c(-c3cc(S(=O)(=O)Nc4ccc(C#N)cc4F)c[nH]3)cccc21 [Cpd 620, N-(4-cyano-2-fluorophenyl)-5-(1-methylbenzimidazol-4-yl)-1H-pyrrole-3-sulfonamide]"
20,0.5 to 5 µM,"O=S(=O)(Nc1cc(F)c(C(F)(F)F)cc1F)c1c[nH]c(C2CCC(F)(F)C2)c1 (stereo not shown) [Cpd 621, 5-(3,3-difluorocyclopentyl)-N-[2,5-difluoro-4-(trifluoromethyl)phenyl]-1H-pyrrole-3-sulfonamide]"

# Source: patent US20240299385A1 (ReWind Therapeutics NV, priority 2021, published 2024)
